Results from PMC6289105 (Organic & Biomolecular Chemistry, 2018).

Tested on: Helix pomatia agglutinin (HPA)
Experiment: Bio-layer interferometry
Type: binding
Settings: SA and SSA sensors; monovalent reference and negative control

BLI binding signal: no detectable signal
Compound: CC(=O)N[C@H]1C(O)O[C@H](CO)[C@H](O)[C@@H]1O (stereo partly shown) [GalNAc]
